This is an account of results in paper PMC8126811, “Clinical translation of choline and geranic acid deep eutectic solvent” (Bioengineering & Translational Medicine, 2020).

The conditions of series [1]: octanol-water partition coefficient; no reference given; cited from earlier work.
Series [2] can be described thus: Human cadaver skin permeation evaluation (static Franz cells). In kind it is in vitro ADME. Here is the method:
Dermatomed full thickness human cadaver skin samples, 250–350 μm, were mounted onto static Franz cells. […] Phosphate buffered saline, pH 7.4 was used as the receptor medium. CGB400 gel was applied to the SC side of the skin samples at a dose of ~15 μl/cm^2 (~15 mg/cm^2). The cells were kept in a chamber at 37°C for a period of 24 h. Stirrers in the receptor chamber ensured that the receptor media was well mixed during this time. The receptor media was sampled at 4, 7, and 24 h to quantify the amount of choline and geranic acid permeation. After 24 h, the skin surface was washed before removing the SC by tape stripping. The SC was stripped from the epidermis using an adhesive tape up to 10 layers (SC1, SC2‐5, SC6‐10). Following SC removal, the epidermis was separated from the dermis using a surgical sterile scalpel and the dermis was cut into pieces. Each layer was collected separately in glass vials containing 2 ml of 50:50 water:methanol mixture and was left to shake overnight to extract the choline and geranic acid. The amount of choline and geranic acid was measured using LC–MS/MS in the wash, epidermis, dermis, and the receptor medium.

As to `C[N+](C)(C)CCO` [choline], the LogP in series [1] was −3.7.

Take `CC(C)=CCC/C(C)=C/C(=O)O` [geranic acid]: in series [1], the LogP was 2.8. Consider Choline geranate [CAGE1:2], for which, in series [2], the “applied CAGE1:2 dose penetrated into the dermis” value is on record as “About 9.5%” and the “molar ratio of choline to geranic acid in the epidermis” value is listed as 1.18.
